# In patent US7354579B2, “Method of treating cancer with a VEGF antagonist and an anti-proliferative agent” (Regeneron Pharmaceuticals, Inc., priority 2003, dated 2008):
# Test system: OVCAR3 cells
# Assay: OVCAR3 i.p. tumor model in athymic nude mice: tumor burden and ascites after 4 weeks of treatment
# Assay type: in vivo
# Conditions: for % Reduction Ascites / % Reduction Tumor Burden: compared to controls; for % Reduction Ascites: ascites volume at end of 4 weeks of treatment; for % Reduction Tumor Burden: treatment for 4 weeks starting 2 weeks after i.p. inoculation, VEGF-Trap s.c. twice weekly, paclitaxel i.p. 3 times weekly; for Mice with tumors in the hilus of the liver / Mice with tumors on the diaphragm: end of experiment; for Ascites formation (in words): end of 4 weeks of treatment
# Description: Experimental Design. Two experiments, each with 4 groups of female athymic nude mice (5-7 wks, 20 mice/experiment, total n=40) were inoculated i.p. with OVCAR3 cells. Two weeks after inoculation, 1 group was treated with VEGF-Trap s.c. twice weekly+paclitaxel i.p. 3 times weekly for 4 weeks. The second group was treated with VEGF-Trap alone. The third group was treated with paclitaxel alone. The remaining group was treated with vehicle. At the end of the experiments, the mice were euthanized, the volume of ascites was measured and all visible tumor was excised and weighed.
Molecule,% Reduction Ascites [%],% Reduction Ascites (listed as Paclitaxel) [%],% Reduction Tumor Burden [%],% Reduction Tumor Burden (listed as paclitaxel) [%],Mice with tumors in the hilus of the liver [%],Mice with tumors on the diaphragm,% Reduction Tumor Burden (listed as VEGF-Trap) [%],Ascites formation (in words) (listed as VEGF trap),Ascites formation (in words) (listed as VEGF-Trap)
"CC(=O)O[C@H]1C(=O)[C@@]2(C)[C@H]([C@H](OC(=O)c3ccccc3)[C@]3(O)C[C@H](OC(=O)[C@H](O)[C@@H](NC(=O)c4ccccc4)c4ccccc4)C(C)=C1C3(C)C)[C@]1(OC(C)=O)CO[C@@H]1C[C@@H]2O [Taxol ™, paclitaxel, reference compound]",85.4,85.5,55.9,54.8,60,80%,,,
"VEGF Trap: VEGF-receptor based trap antagonist VEGFR1R2-FcΔC1(a) (SEQ ID NOs: 1-2), capable of high affinity binding of VEGF",96.5,,56.7,,60,Ninety,55.7,no demonstrable ascites,Virtually no ascites developed
